Starred links: 1 amine or outer side, 2 acyl side, 3 side chain; linkers in the order of their positions; H or OH if unused. Positions of bridges follow the written chain, without caps; N, C: chain ends. Non-standard residues stand in square brackets, D forms with d. Residues, ends and D or L forms follow the SMILES beside them. *: point of attachment. X1 = CC[C@H](C)[C@@H](N[*:1])[C@@H](O)CC(=O)O[C@H](C(=O)[C@H](C)C(=O)[*:2])C(C)C; NMeY = CN[C@@H](Cc1ccc(O)cc1)C(=O)O; dNMeL = CN[C@H](CC(C)C)C(=O)O; Pyruvoyl = CC(=O)C(=O)*
System: COVID-19
Assay: APLICOV-PC: six-point ordinal scale (post hoc)
Format: in vivo, human
Procedure: Although not specified in the protocol (so not captured in the CRF), post-hoc analysis was performed to categorize the status of each patient at baseline, on Days 7, 15, 31, and at time of discharge using the following 6-point ordinal scale (Wang et al 2020):
Hospital admission, not requiring supplemental oxygen
Hospital admission, requiring supplemental oxygen
Hospital admission, requiring high-flow nasal cannula or noninvasive mechanical ventilation
Hospital admission, requiring extracorporeal membrane oxygenation or invasive mechanical ventilation
The number and percentage of patients with at least 1-point and at least 2-point improvements from baseline was calculated for Days 7, 15, 31 and date of discharge.

With `CC[C@H](C)[C@H]1NC(=O)[C@@H](NC(=O)[C@@H](CC(C)C)N(C)C(=O)[C@@H]2CCCN2C(=O)C(C)=O)[C@@H](C)OC(=O)[C@H](Cc2ccc(OC)cc2)N(C)C(=O)[C@@H]2CCCN2C(=O)[C@H](CC(C)C)NC(=O)[C@@H](C)C(=O)[C@H](C(C)C)OC(=O)C[C@@H]1O` [Plitidepsin] (Pyruvoyl-P[dNMeL]T[X1]LP[NMeY](Me); ester 3-C) the “2 Hospital admission, not requiring supplemental oxygen” value (Day 4, 1.5 mg (N=14)) was 28.6%, the “3 Hospital admission, requiring supplemental oxygen” value (from here on “3 Hospital admission”) (Day 4, 1.5 mg (N=14)) was 57.1% and the “4 Hospital admission, requiring high-flow nasal cannula or non-invasive mechanical ventilation” value (Day 4, 1.5 mg (N=14)) was 14.3%. For the same molecule, the “2 Hospital admission, not requiring supplemental oxygen” value (Day 4, 2 mg (N=15)) was 40%, the “3 Hospital admission” value (Day 4, 2 mg (N=15)) was 60% and the “2 Hospital admission, not requiring supplemental oxygen” value (Day 4, 2.5 mg (N=15)) was 33.3%. The “3 Hospital admission” value (Day 4, 2.5 mg (N=15)) was 66.7%, the “2 Hospital admission, not requiring supplemental oxygen” value (Day 4, Total (N=44)) was 34.1% and the “3 Hospital admission” value (Day 4, Total (N=44)) was 61.4%. For the same molecule, the “4 Hospital admission, requiring high-flow nasal cannula or non-invasive mechanical ventilation” value (Day 4, Total (N=44)) was 4.5%, the “1 Discharged (Alive)” value (Day 7, 1.5 mg (N=14)) was 21.4% and the “2 Hospital admission, not requiring supplemental oxygen” value (Day 7, 1.5 mg (N=14)) was 21.4%. For the same molecule, the “3 Hospital admission” value (Day 7, 1.5 mg (N=14)) was 35.7%, the “4 Hospital admission, requiring high-flow nasal cannula or non-invasive mechanical ventilation” value (Day 7, 1.5 mg (N=14)) was 21.4% and the “1 Discharged (Alive)” value (Day 7, 2 mg (N=15)) was 13.3%. The “2 Hospital admission, not requiring supplemental oxygen” value (Day 7, 2 mg (N=15)) was 20%, the “3 Hospital admission” value (Day 7, 2 mg (N=15)) was 66.7% and the “1 Discharged (Alive)” value (Day 7, 2.5 mg (N=15)) was 33.3%. The “2 Hospital admission, not requiring supplemental oxygen” value (Day 7, 2.5 mg (N=15)) was 20%, the “3 Hospital admission” value (Day 7, 2.5 mg (N=15)) was 26.7% and the “4 Hospital admission, requiring high-flow nasal cannula or non-invasive mechanical ventilation” value (Day 7, 2.5 mg (N=15)) was 20%. For the same molecule, the “1 Discharged (Alive)” value (Day 7, Total (N=44)) was 22.7%, the “2 Hospital admission, not requiring supplemental oxygen” value (Day 7, Total (N=44)) was 20.5% and the “3 Hospital admission” value (Day 7, Total (N=44)) was 43.2%. For the same molecule, the “4 Hospital admission, requiring high-flow nasal cannula or non-invasive mechanical ventilation” value (Day 7, Total (N=44)) was 13.6%, the “1 Discharged (Alive)” value (Day 15, 1.5 mg (N=14)) was 78.6% and the “3 Hospital admission” value (Day 15, 1.5 mg (N=14)) was 7.1%. For the same molecule, the “4 Hospital admission, requiring high-flow nasal cannula or non-invasive mechanical ventilation” value (Day 15, 1.5 mg (N=14)) was 7.1%, the “5 Hospital admission, requiring extracorporeal membrane oxygenation or invasive mechanical ventilation” value (shortened to “5 Hospital admission”) (Day 15, 1.5 mg (N=14)) was 7.1% and the “1 Discharged (Alive)” value (Day 15, 2 mg (N=15)) was 93.3%. The “5 Hospital admission” value (Day 15, 2 mg (N=15)) was 6.7%, the “1 Discharged (Alive)” value (Day 15, 2.5 mg (N=15)) was 73.3% and the “3 Hospital admission” value (Day 15, 2.5 mg (N=15)) was 6.7%. The “4 Hospital admission, requiring high-flow nasal cannula or non-invasive mechanical ventilation” value (Day 15, 2.5 mg (N=15)) was 20%, the “1 Discharged (Alive)” value (Day 15, Total (N=44)) was 81.8% and the “3 Hospital admission” value (Day 15, Total (N=44)) was 4.5%. For the same molecule, the “4 Hospital admission, requiring high-flow nasal cannula or non-invasive mechanical ventilation” value (Day 15, Total (N=44)) was 9.1%, the “5 Hospital admission” value (Day 15, Total (N=44)) was 4.5% and the “1 Discharged (Alive)” value (Day 31, 1.5 mg (N=14)) was 85.7%. For the same molecule, the “2 Hospital admission, not requiring supplemental oxygen” value (Day 31, 1.5 mg (N=14)) was 7.1%, the “6 Death” value (Day 31, 1.5 mg (N=14)) was 7.1% and the “1 Discharged (Alive)” value (Day 31, 2 mg (N=15)) was 93.3%. For the same molecule, the “4 Hospital admission, requiring high-flow nasal cannula or non-invasive mechanical ventilation” value (Day 31, 2 mg (N=15)) was 6.7%, the “1 Discharged (Alive)” value (Day 31, 2.5 mg (N=15)) was 80% and the “2 Hospital admission, not requiring supplemental oxygen” value (Day 31, 2.5 mg (N=15)) was 6.7%. For the same molecule, the “5 Hospital admission” value (Day 31, 2.5 mg (N=15)) was 6.7%, the “6 Death” value (Day 31, 2.5 mg (N=15)) was 6.7% and the “1 Discharged (Alive)” value (Day 31, Total (N=44)) was 86.4%. The “2 Hospital admission, not requiring supplemental oxygen” value (Day 31, Total (N=44)) was 4.5%, the “4 Hospital admission, requiring high-flow nasal cannula or non-invasive mechanical ventilation” value (Day 31, Total (N=44)) was 2.3% and the “5 Hospital admission” value (Day 31, Total (N=44)) was 2.3%. For the same molecule, the “6 Death” value (Day 31, Total (N=44)) was 4.5%.

— publication PMC8761492 (Life Science Alliance, 2022)
